Assay results from EP4385491A1, “PH-STABLE BIOTECHNOLOGY COMPOSITION BASED ON LACCASE FOR TARGETED DEGRADATION OF COLOURED MELANOIDINES AND/OR PHENOLIC ORGANIC COMPOUNDS ON DENSE SURFACES” (SkyLab AG, priority 2022, dated 2024).

Details: pH 3.0, coffee solution, 60 min

SMILES: OO [0.01% hydrogen peroxide solution, hydrogen peroxide]
- Degradation of melanoidins and phenolic organic compounds, % (40 ± 1°C, 325 nm, laccase 0.25 wt.% raw material (0.0875 wt.% active), hydrogen peroxide 0.01%): -6.0%
- activity against melanoidins and phenolic organic compounds (in words): low degradation
